{"source": "patent US12018033B2", "about": "“Inhibitors of protein arginine deiminases” (Forward Therapeutics, Inc., priority 2018, dated 2024)", "molecular_target": "T1, Recombinant human PAD4 (2-663) (Homo sapiens, UniProt Q9UM07)", "T1 construct": "Recombinant human PAD4 (2-663) was expressed in E. coli; made in house; host or cells: E. coli", "T1 sequence (Q9UM07 2-663)": "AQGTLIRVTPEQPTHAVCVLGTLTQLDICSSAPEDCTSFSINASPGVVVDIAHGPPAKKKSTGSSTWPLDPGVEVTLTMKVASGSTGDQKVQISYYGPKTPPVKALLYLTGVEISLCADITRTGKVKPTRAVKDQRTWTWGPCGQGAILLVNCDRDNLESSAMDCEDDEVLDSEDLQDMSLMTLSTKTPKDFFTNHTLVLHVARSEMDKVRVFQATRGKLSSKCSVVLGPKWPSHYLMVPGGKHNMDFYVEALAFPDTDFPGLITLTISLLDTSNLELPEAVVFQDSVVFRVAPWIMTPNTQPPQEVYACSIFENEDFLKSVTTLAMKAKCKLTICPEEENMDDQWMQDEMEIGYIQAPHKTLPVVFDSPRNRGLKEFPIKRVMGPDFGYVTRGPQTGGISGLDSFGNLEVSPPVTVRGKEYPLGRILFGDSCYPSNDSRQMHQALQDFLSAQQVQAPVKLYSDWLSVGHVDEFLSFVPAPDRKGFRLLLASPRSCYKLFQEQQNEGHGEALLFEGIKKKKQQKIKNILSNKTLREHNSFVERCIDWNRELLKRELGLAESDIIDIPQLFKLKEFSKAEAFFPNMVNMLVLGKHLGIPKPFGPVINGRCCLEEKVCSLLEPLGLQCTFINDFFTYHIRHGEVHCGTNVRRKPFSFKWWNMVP", "experiment": "PAD4 Inhibition Assay", "assay_type": "biochemical", "details": "60 mins pre-incubation at RT; substrate BAEE with CaCl2; fluorescent signal (λex 405/λem 460)", "protocol": "Protein: Recombinant human PAD4 (2-663) was expressed in E. coli as an N-terminal Strep-tag and C-terminal 6-his tag fusion protein. Protein was purified using Strep-tactin resin followed by size exclusion chromatography. Tags were not removed during purification. Activity of the protein was determined using ammonia quantification assay.\nPAD4 enzyme (10 μL) was diluted to concentration of 75 nM in assay buffer A (100 mM HEPES, pH 8, 50 mM NaCl, 2 mM DTT, 0.6 mg/mL BSA and 0.5% DMSO) and added to wells containing 10 μL of various concentrations of test compound, or DMSO vehicle in buffer A with 1.5% final DMSO concentration in a Corning high volume 384 well black plate. Following 60 mins pre-incubation at RT with gentle shaking, the reaction was initiated by the addition of 10 μL of substrate buffer containing 3 mM N-α-benzoyl-L-arginine ethyl ester (BAEE) and 600 μM CaCl2) in assay buffer A. The reaction was stopped after 60 mins with the addition of 15 μL stop/detection buffer containing 7.5 mM phthalaldehyde, 50 mM EDTA and 7.5 mM DTT in assay buffer A. Quenched reactions were incubated at RT for 45 mins before measuring fluorescent signal (λex 405/λem 460) on an Envision plate reader (Perkin Elmer Life Sciences, Waltham, Mass., USA)."}
{"smiles": "O=C(c1cc2cc(Cl)c(F)c(F)c2[nH]1)N1CC[C@H]2CNC[C@H]21", "note": "[Example 57, (5-chloro-6,7-difluoro-1H-indol-2-yl)((3aS,6aS)-hexahydropyrrolo[3,4-b]pyrrol-1(2H)-yl)methanone]", "values": [{"measurement": "IC50", "result": "1 to 10", "unit": "µM"}]}
{"smiles": "CC[C@@H](CN)NC(=O)c1cc2cc(Cl)c(F)c(F)c2[nH]1", "note": "[Example 10, (S)-N-(1-Aminobutan-2-yl)-5-chloro-6,7-difluoro-1H-indole-2-carboxamide]", "values": [{"measurement": "IC50", "result": "1 to 10", "unit": "µM"}]}
{"smiles": "CO[C@H]1CN(C(=O)c2cc3cc(Cl)c(F)c(F)c3[nH]2)C[C@@H]1N", "note": "[Example 35, ((3S,4S)-3-Amino-4-methoxypyrrolidin-1-yl)(5-chloro-6,7-difluoro-1H-indol-2-yl)methanone]", "values": [{"measurement": "IC50", "result": "> 100", "unit": "µM"}]}
{"smiles": "O=C(N[C@@H]1CCCNC1)c1cc2cc(Cl)c(F)c(F)c2[nH]1", "note": "[Example 40, (R)-5-Chloro-6,7-difluoro-N-(piperidin-3-yl)-1H-indole-2-carboxamide]", "values": [{"measurement": "IC50", "result": "10 to 100", "unit": "µM"}]}
{"smiles": "N[C@H]1CN(C(=O)c2cc3cc(Cl)c(F)c(F)c3[nH]2)C[C@@H]1N", "note": "[Example 29, (5-Chloro-6,7-difluoro-1H-indol-2-yl)((3S,4S)-3,4-diaminopyrrolidin-1-yl)methanone]", "values": [{"measurement": "IC50", "result": "1 to 10", "unit": "µM"}]}
{"smiles": "N[C@@H]1CCN(C(=O)c2cc3cc(F)c(Br)c(F)c3[nH]2)C1", "note": "[Example 6, (R)-(3-Aminopyrrolidin-1-yl)(6-bromo-5,7-difluoro-1H-indol-2-yl)methanone]", "values": [{"measurement": "IC50", "result": "10 to 100", "unit": "µM"}]}
{"smiles": "N[C@@H]1CCN(C(=O)c2cc3cc(Cl)c(Cl)cc3[nH]2)C1", "note": "[Example 44, (R)-(3-Aminopyrrolidin-1-yl)(5,6-dichloro-1H-indol-2-yl)methanone]", "values": [{"measurement": "IC50", "result": "1 to 10", "unit": "µM"}]}
{"smiles": "N[C@H]1CN(C(=O)c2cc3cc(I)c(F)c(F)c3[nH]2)C[C@@H]1O", "note": "[Example 66, ((3S,4S)-3-amino-4-hydroxypyrrolidin-1-yl)(6,7-difluoro-5-iodo-1H-indol-2-yl)methanone]", "values": [{"measurement": "IC50", "result": "1 to 10", "unit": "µM"}]}
{"smiles": "N[C@@H]1CCN(C(=O)c2cc3cc(Cl)c(F)c(F)c3[nH]2)C1", "note": "[Example 1, (R)-(3-Aminopyrrolidin-1-yl)(5-chloro-6,7-difluoro-1H-indol-2-yl)methanone]", "values": [{"measurement": "IC50", "result": "≤ 1", "unit": "µM"}]}
{"smiles": "O=C(N[C@@H]1CNC[C@H]1O)c1cc2cc(Cl)c(F)c(F)c2[nH]1", "note": "[Example 15, 5-Chloro-6,7-difluoro-N-((3R,4R)-4-hydroxypyrrolidin-3-yl)-1H-indole-2-carboxamide]", "values": [{"measurement": "IC50", "result": "1 to 10", "unit": "µM"}]}
{"smiles": "N[C@@H]1CCN(C(=O)c2cc3cc(F)c(F)cc3[nH]2)C1", "note": "[Example 50, (R)-(3-Aminopyrrolidin-1-yl)(5,6-difluoro-1H-indol-2-yl)methanone]", "values": [{"measurement": "IC50", "result": "10 to 100", "unit": "µM"}]}
{"smiles": "C[C@H]1NC[C@H]1NC(=O)c1cc2cc(Cl)c(F)c(F)c2[nH]1", "note": "[Example 55, 5-chloro-6,7-difluoro-N-((2R,3R)-2-methylazetidin-3-yl)-1H-indole-2-carboxamide]", "values": [{"measurement": "IC50", "result": "1 to 10", "unit": "µM"}]}
{"smiles": "N[C@@H]1CCN(C(=O)c2cc3cc(F)ccc3[nH]2)C1", "note": "[Example 49, (R)-(3-Aminopyrrolidin-1-yl)(5-fluoro-1H-indol-2-yl)methanone]", "values": [{"measurement": "IC50", "result": "10 to 100", "unit": "µM"}]}
{"smiles": "N[C@H]1CN(C(=O)c2cc3cc(Cl)c(F)c(F)c3[nH]2)C[C@@H]1O", "note": "[Example 22, ((3S,4S)-3-Amino-4-hydroxypyrrolidin-1-yl)(5-chloro-6,7-difluoro-1H-indol-2-yl)methanone]", "values": [{"measurement": "IC50", "result": "≤ 1", "unit": "µM"}]}
{"smiles": "C[C@@H]1NC[C@@H]1NC(=O)c1cc2cc(Cl)c(F)c(F)c2[nH]1", "note": "[Example 54, 5-chloro-6,7-difluoro-N-((2S,3S)-2-methylazetidin-3-yl)-1H-indole-2-carboxamide]", "values": [{"measurement": "IC50", "result": "1 to 10", "unit": "µM"}]}
{"smiles": "N[C@H]1CN(C(=O)c2cc3cc(Cl)c(F)c(F)c3[nH]2)CC[C@@H]1F", "note": "[Example 42, ((3S,4S)-3-Amino-4-fluoropiperidin-1-yl)(5-chloro-6,7-difluoro-1H-indol-2-yl)methanone]", "values": [{"measurement": "IC50", "result": "10 to 100", "unit": "µM"}]}
{"smiles": "C[C@@H](CN)N(C)C(=O)c1cc2cc(Cl)c(F)c(F)c2[nH]1", "note": "[Example 64, (S)-N-(1-aminopropan-2-yl)-5-chloro-6,7-difluoro-N-methyl-1H-indole-2-carboxamide]", "values": [{"measurement": "IC50", "result": "1 to 10", "unit": "µM"}]}
